# Columns and labels:
# [1] = biological target: T1, isolated rat TrxR1 (rat liver TrxR) (Rattus norvegicus, UniProt O89049); test: Inhibition of purified TrxR (DTNB reduction); type: biochemical; settings: isolated enzyme, 75 min 37 °C preincubation; mean ± SD, three measurements
# T1 construct: Commercially available rat liver TrxR; purchased Sigma Aldrich; host or cells: rat liver
# T1 sequence (O89049 1-499): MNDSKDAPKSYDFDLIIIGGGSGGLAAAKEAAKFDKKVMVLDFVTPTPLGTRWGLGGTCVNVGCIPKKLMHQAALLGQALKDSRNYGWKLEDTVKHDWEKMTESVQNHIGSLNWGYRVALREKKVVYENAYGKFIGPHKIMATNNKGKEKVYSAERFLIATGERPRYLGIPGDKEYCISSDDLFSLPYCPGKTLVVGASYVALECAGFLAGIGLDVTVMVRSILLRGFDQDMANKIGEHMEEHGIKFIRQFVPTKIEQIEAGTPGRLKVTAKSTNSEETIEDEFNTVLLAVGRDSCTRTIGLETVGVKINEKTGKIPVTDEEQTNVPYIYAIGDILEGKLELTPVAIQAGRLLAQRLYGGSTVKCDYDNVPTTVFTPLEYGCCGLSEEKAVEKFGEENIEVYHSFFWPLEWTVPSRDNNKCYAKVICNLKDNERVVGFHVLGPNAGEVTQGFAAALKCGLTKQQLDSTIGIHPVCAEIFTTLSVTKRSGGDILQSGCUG
# Experimental: The activity of TrxR [40, 54] was determined in a microplate format. Commercially available rat liver TrxR (Sigma Aldrich, St. Louis, MO, USA) was diluted with distilled water to 3.5 Unit/mL. In total, 25 μL aliquots of this solution were mixed with 25 μL of a potassium phosphate buffer, pH 7.0, with or without tested compounds. Fifty µL of 0.5% v/v dimethyl formamide in buffer was served as a blank. […] For this purpose, 25 µL of the highest test concentration of each compound and 25 µL of phosphate buffer (no enzyme) were mixed. Samples were incubated with moderate shaking for 75 min at 37 °C in a 96-well plate. To each well, 225 μL of the reaction mixture (500 μL of potassium phosphate buffer, pH 7.0, 80 μL of 100 mM ethylenediaminetetraacetic acid (EDTA), 20 μL of 0.2% bovine serum albumin, 100 μL of 20 mM NADPH (nicotinamide adenine dinucleotide phosphate), and 300 μL of water) was added; the reaction was initiated by the addition of 25 μL of 20 mM DTNB (5,5′-dithiobis(2-nitrobenzoic acid)) solution in ethanol. The formation of 5-TNB was monitored at 405 nm 10 times at 35 s intervals by a VICTOR X4 Plate Reader (Perkin Elmer). […] IC50 values were calculated as the concentration of the compound that decreased the enzymatic activity of the control (no compound) by 50%. Values are mean ± SD of the three independent measurements.
# A549 = test: Antiproliferative activity, MTT assay; type: cell-based, human; settings: MTT, 72 h exposure; mean ± SD; read-out: IC50, µM A549
# Experimental: (§1) The antiproliferative activity of new ligands and complexes was determined against human cell lines, including colon adenocarcinoma SW480, breast adenocarcinoma MCF-7, lung adenocarcinoma A549, neuroblastoma SHSY5Y, and non-tumourigenic HaCaT (Table 4). In general, complexes were more cytotoxic compared to ligands, lonidamine, and, in some cases, cisplatin. […] We chose this compound and the synthetically accessible complex 16 for mechanistic studies.
# (§2) The antiproliferative activity was studied by MTT assays as published previously. For flow cytometry studies, cells were plated into 6-well plates (Eppendorf, Germany; 4 × 10^5 cells in 2 mL of DMEM) and incubated for 24 h. Solutions of complexes in DMSO were prepared immediately prior to the day of the experiments. Cells were treated with either 20 µM of cisplatin, 50 µM of 16, or 20 µM of 20. Concentrations corresponded to two-fold IC50 values based on MTT assays. Cells were incubated for 24 h, pooled, washed with cold PBS, and resuspended in DMEM. Aliquots of cells were processed as recommended in the Muse Annexin V&Dead Cell Kit or Muse Caspase-3/7 Kit (Luminex). Measurements were carried out on a Muse Cell Analyser, Luminex corp., TX, USA.
# MCF-7 = test: Antiproliferative activity, MTT assay; type: cell-based, human; settings: MTT, 72 h exposure; mean ± SD; read-out: IC50, µM MCF-7
# Experimental: as §1, §2
# SH-SY5Y = test: Antiproliferative activity, MTT assay; type: cell-based, human; settings: 72 h exposure, mean ± SD
# Experimental: as §1, §2
# SW480 = test: Antiproliferative activity, MTT assay; type: cell-based, human; settings: MTT, 72 h exposure; mean ± SD; read-out: IC50, µM SW480
# Experimental: as §1, §2
# [2] = tested on: MCF-7 breast carcinoma cells; test: Cellular ruthenium accumulation by atomic absorption spectrometry; type: cell-based; settings: MCF-7, 20 μM
# Experimental: The cellular accumulation of ruthenium complexes was studied by atomic absorption spectrometry. The MCF-7 breast carcinoma cells were incubated with 16 and 20 for 1–24 h in DMEM with or without fetal bovine serum to reduce the binding of complexes with proteins. The accumulation was dependent on the linker’s length. […] The ruthenium complex entered the cells relatively fast; by 4 h, no notable further increase of the Ru content was observed (Figure 6). […] The negative effect of serum on the cellular Ru accumulation has been reported for other ruthenium species; however, significant effects were detectable only after longer exposure (24 h).
# The intracellular accumulation of metal-containing compounds was determined as described. […]
# For metal and protein quantification, pellets were resuspended in 250 µL of deionised water and lysed for 30 min with sonication. The protein content in lysates was determined by the Bradford method. […] Drying steps were adjusted, the atomisation temperature was set to 2400 °C, and the reading time was increased to 7 s. Ruthenium was quantified at 349.8945 nm. The mean integrated absorbance of triple injections was used throughout the measurements. Results (average of the two experiments) were expressed as nmol metal/mg protein.
Substance,IC50 [1] [µM],IC50 (A549) [µM],IC50 (MCF-7) [µM],IC50 (SH-SY5Y) [µM],IC50 (SW480) [µM],cellular Ru accumulation with serum in the culture medium ([2]; serum present),cellular Ru accumulation ([2]; 1–24 h)
Na[trans-Ru(DMSO)(C21H19Cl2N5O)Cl4] [Compound 16],20.4 ± 0.1,> 30,23 ± 0.5,26.1 ± 5.5,25 ± 7.1,only very low uptake,
Na[trans-Ru(DMSO)(C30H37Cl2N5O)Cl4] [Compound 20],8.5 ± 0.3,8.1 ± 1.1,9.2 ± 0.1,6.1 ± 0.3,9.6 ± 1.3,,accumulated more readily than 16

# — paper PMC8707700, “Ru(III) Complexes with Lonidamine-Modified Ligands” (International Journal of Molecular Sciences, 2021)
